How the values were obtained:
[1] = system: C57BL/6J mice on high fat diet; assay: Systemic insulin sensitivity (fasting glucose, insulin, ITT, HOMA-IR) in HFD mice; format: in vivo, mouse; conditions: butyrate 5% w/w in HFD
Method: ITT was conducted by intra-peritoneal (i.p.) injection of insulin (I9278, Sigma) at 0.75 U/kg body weight in mice after a 4 hour fast as previously described (15). Blood glucose was monitored in the tail vein blood using the FreeStyle blood glucose monitoring system (TheraSense, Phoenix, Ariz.).
To test this possibility, systemic insulin sensitivity was analyzed using fasting glucose, insulin, and insulin tolerance.
Tail vein blood was used for the glucose assay after 16 hr fasting during the period of HFD feeding. […] The insulin was determined at 16 weeks on HFD in fasting condition with Lincoplex kit (#MADPK-71k-03, Linco Research Inc., St. Charles, Mo.). […] ITT was done at 12 weeks on HFD (at 16 weeks of age). In FIGS. 2A-2C, data are presented as means±SE (N=9). *P<0.05, **P<0.001 by Student's t test. […] After an overnight fast, blood glucose and insulin were measured and used to determine insulin sensitivity through HOMA IR (IR=fasting insulin […] X fasting glucose mg/dL÷405). Values are the means±SE (N=8 mice). ** P<0.001. […] The gastrocnemius muscle was isolated after insulin (0.75 U/kg) injection in mice for 30 min and used to prepare the whole cell lysate for an immunoblot. The mice on HFD for 13 weeks were used in the signaling assay. FIG. 2F illustrates the degree of the blot signal in the panel 2E, by quantifying the signal and normalizing with protein loading. **P<0.001 (n=2).

[2] = system: C57BL/6J mice on high fat diet; assay: Body temperature in cold response (4° C.); format: in vivo, mouse; conditions: butyrate 5% w/w in HFD 10 weeks, ambient 4° C.
Method: Body temperature was measured in the cold room with ambient temperature at 4° C. Animals were sedated and restrained for less than 30 sec in the measurement. A Thermalert model TH-8 temperature monitor (Physitemp, Clifton, N.J.) was used with probe placed in the rectum at 2.5 cm in depth.
The association of increased food intake with elevated energy expenditure implicated a role of brown adipose tissue, which is responsible for adaptive thermogenesis in response to diet or cold (20-22). Diet-induced thermogenesis reduces obesity in both humans and animals (23). […] To determine the thermogenic function, a cold-response experiment was conducted by exposing the mice to a cold environment with an ambient temperature of 4° C. for 90 min. The mice had been on HFD for 10 weeks. The body core temperature was monitored three times during exposure by measuring the rectal temperature. In the control mice, the body temperature decreased with time and was 34.5° C. after 90 min in the cold (FIG. 4A). In the butyrate-treated mice, the body temperature dropped to 35° C. transiently at 30 minutes, and then returned to 36° C. for the rest of time.

[3] = system: skeletal muscle (vastus laterais, gastrocnemius, soleus); assay: Skeletal muscle fiber type and immunoblot; format: in vivo, mouse; conditions: butyrate 5% w/w in HFD 13 weeks
Text: Fresh fat and muscles were collected and frozen in liquid nitrogen. The whole cell lysate protein was extract in lysis buffer with sonication and analyzed in western blot as described elsewhere (16). Antibodies were used in study of myoglobin (sc-25607, Santa Cruz), PGC-1 (sc-13068, Santa Cruz), Tubulin (ab7291, Abcam), myosin (M8421, Sigma), pAMPK (Thr 172, #2531, Cell signaling) and p-p38 (sc-7975, Santa Cruz). To detect multiple signals from one membrane, the membrane was stripped with a stripping buffer. Intensity of the immunoblot signal was quantified using a computer program, ImageJ 1.37v (NIH). The mean values of results from three experiments (6 mice each group) were presented. The antibodies to PGC-1α and UCP-1 were from Dr. Thomas Gettys at Pennington Biomedical Research Center, Baton Rouge, La.
The fiber types in skeletal muscle were examined using two methods: succinate dehydrogenase (SDH) staining for […] and immunostaining of type I myosin heavy chain. In the SDH staining, mid-belly cross-sections of muscle were cut at 8 μm in a cryostat (−20° C.). After drying for 5 min at room temperature, the sections were incubated at 37° C. for 60 min in the incubation solution containing 6.5 mmol/l sodium phosphate monobasic, 43.5 mmol/l sodium phosphate biphasic, 0.6 mmol/l nitroblue tetrazolium (74032, Sigma), and 50 mmol/l sodium succinate (14160, Sigma). The sections were rinsed three times (30 sec/time) in 0.9% saline, 5 min in 15% ethanol and then mounted with aqueous mounting medium (Dakocyrtoma).
Fresh skeletal muscle was collected, embedded in gum tragacanth mixed with OCT freezing matrix, and quickly frozen in isopentane cooled in liquid nitrogen. The tissue slides were obtained through serial cross-section cutting at 8 um thickness and processed with a standard procedure. The slides was blotted with a monoclonal antibody against the type I myosin heavy chain (M8421, Sigma) at 1:200 dilution. After being washed, the slide was incubated with a biotinylated secondary antibody (BA-2000). For PGC-1 staining, paraffin sections (8 μm) of BAT or inguinal fat on slides were deparaffinized and blotted with primary antibody of PGC-1 (sc-13067, Santa Cruz) at 1:200, the sections were washed and incubated with a biotinylated secondary antibody (rabbit IgG) in ABC kit. The slides were then incubated with the ABC elite reagent (PK-6101) and color reaction was performed using the DAB substrate kit (SK-4100) for myosin I and AEC substrate kit (AEC101, Sigma) for PGC-1a according to instructions by the manufacturers.
To look for oxidative fiber in skeletal muscle, the vastus laterais muscle was isolated from mice that were fed on HFD for 13 weeks. […] A fiber type analysis was conducted in the vastus laterais, gastrocnemius (rich in glycolytic fibers) and soleus (rich in oxidative fiber). Serial cryostat sections of muscle were made from vastus lateralis, gastrocnemius (gastr.) and soleus muscle. The slides were stained with antibody against Type I myosin heavy chain for oxidative fibers. The ratio of type I fibers were increased in all of the skeletal muscle of butyrate-treated mice (data not shown). Succinate dehydrogenase staining of oxidative fibers was done on serial cryostat sections of the vastus lateralis and gastrocnemius (gastr.) muscle.
To quantify the amount of protein of type 1 myosin heavy chain and PGC-1α, whole cell lysates were prepared from muscle tissues and analyzed in an immunoblot. Signals for PGC-1α, type I myosin heavy chain (Myosin), myoglobin, phospho-AMPK and phospho-p38 (p-p38) were blotted with specific antibodies. Relative signal strength was quantified for each band and expressed in FIG. 5B. The results are the mean±SE (n=8 mice). *P<0.01, ** P<0.001 (vs. control). […] A mean value of each protein was presented in the bar figure in FIG. 5B.
AMPK and p38 activities were examined by their phosphorylation status. […]

liver cells = conditions: isolated rat liver; cited from earlier work

CCCC(=O)[O-].[Na+] [sodium butyrate]
insulin tolerance test (ITT) response ([1]; 12 weeks, insulin 0.75 U/kg i.p., 30, 60, 120 and 180 min): much better response to insulin at all time points
fasting insulin, lower than control ([1]; 16 weeks on HFD): 50%
fasting glucose (HFD-induced increase) ([1]; after 10 weeks, 16 hr fasting): this increase was not observed
HOMA-IR, lower than control ([1]; overnight fast): 60%
body temperature (rectal) at 30 minutes in the cold [2]: 35 °C
body temperature (rectal) for the rest of time in the cold ([2]; up to 90 min): 36 °C
AMPK phosphorylation in muscle lysate ([3]; immunoblot): increase in their phosphorylation
PGC-1α protein in muscle ([3]; immunoblot): significant increase
myoglobin protein in muscle ([3]; immunoblot): also increased
p38 phosphorylation in muscle lysate ([3]; immunoblot): increase in their phosphorylation
type 1 myosin heavy chain protein in muscle ([3]; immunoblot): significant increase
Type I fibers (succinate dehydrogenase staining) ([3]; vastus lateralis and gastrocnemius): increase in Type I fibers
ratio of type I fibers (Type I myosin heavy chain immunostaining) ([3]; vastus lateralis, gastrocnemius, soleus): increased
energy metabolism (liver cells) (liver cells): impairment

Source: patent US20130123358A1, “Metabolic Benefits to Butyrate as a Chronic Diet Supplement” (priority 2009, published 2013)
